62 molecules from patent publication US10189843B2, “Fused pyrazole derivative having autotaxin inhibitory activity” (The University of Tokyo, priority 2014, dated 2019) can be followed below.

Broadly, the IC50 is the concentration that inhibits the measured activity by half.

For the assay, the target named is T1, Human autotaxin enzyme (Homo sapiens, UniProt Q13822).
T1 construct: purchased R&D System
Nature of the assay: Evaluation of autotaxin inhibitor, Method C (18:0 Lyso PC substrate, choline assay, Resorufin fluorescence). Format: biochemical. The settings on record: Method C (Test Example 3), read-out: Inhibitory activity (enzyme inhibitory activity, IC50). Here is the method:
Test Example 3 (Method C) Evaluation of Autotaxin Inhibitor
Solution B containing 100 mM Tris-HCl buffer (pH7.5), 150 mM NaCl, 5 mM MgCl2, and 0.05% Triton X-100 was prepared. Human autotaxin enzyme (purchased from R&D System) was diluted with Solution B, and 2.5 μl of which was added to a solution of test compound in DMSO. Furthermore, 2.5 μl of 200 μM 18:0 Lyso PC (purchased from Avanti Polar Lipids) in Solution B was added and allowed to react at room temperature for 2 hours. After completion of the reaction, 15 μl of the coline assay reagent (100 mM Tris-HCl buffer (pH7.5), 5 mM MgCl2, 77 μg/ml coline oxidase, 10 μg/ml peroxydase, 25 μM 10-acetyl-3,7-dihydroxyphenoxazine, and excess autotaxin inhibitor) was added and allowed to react at room temperature for 20 minutes. The fluorescent dye Resorufin, which was produced by the reaction, was detected. The fluorescence was detected using ViewLux (PerkinElmer, Inc.) with a excitation wavelength of 531 nm and a fluorescence wavelength of 598 nm.
The percent inhibition of the test compound was calculated by assuming the sample with no test compound as 0% inhibition and the sample with no enzyme as 100% inhibition, and the percent inhibitions at different concentrations of the test compound were plotted to obtain a concentration-dependent curve.

In the case of `CCCCCC1CN(CC(=O)N2CCCC2C)C(=O)c2cc(-c3ccc(Cl)cc3)nn21` (centres unmarked) [Compound I-0081], the IC50 fell in the range of 100 to 1000 nM. Take `CCCOCC1CN(Cc2ccc(C#N)cc2)C(=O)c2cc(-c3ccc(Cl)cc3)nn21` (centres unmarked) [Compound I-0291]: the IC50 lay in the range of 10 to 100 nM. Take `CCCCCC1CN(CC(=O)N(C)CCN(C)C)C(=O)c2cc(-c3ccc(Cl)cc3)nn21` (centres unmarked) [Compound I-0102]: the IC50 was not below 1000 nM. With `O=C(O)c1cccc(CN2CC(CO)n3nc(-c4ccc(Cl)cc4)cc3C2=O)c1` (centres unmarked) [Compound I-0174] the figure was not below 1000 nM. For `CCCCCC1CN(CC(=O)OCC2CCCCN2)C(=O)c2cc(-c3ccc(Cl)cc3)nn21` (centres unmarked) [Compound I-0114], the half-maximal inhibitory concentration (IC50) is not below 1000 nM.

In the case of `CCCCC1CN(CC(=O)NCC(O)C(F)(F)F)C(=O)c2cc(-c3ccc(Cl)cc3)nn21` (centres unmarked) [Compound I-0216], the half-inhibitory concentration (IC50) was in the range of 100 to 1000 nM.

On to `CCCCCC1CN(CC(=O)Nc2ccc(CCC(=O)O)cc2)C(=O)c2cc(-c3ccc(Cl)cc3)nn21` (centres unmarked) [Compound I-0058], for which the IC50 is 100 to 1000 nM. For `O=C(O)c1cccc(CN2CC(COCC(F)(F)F)n3nc(-c4ccc(Cl)cc4)cc3C2=O)c1` (centres unmarked) [Compound I-0311], the IC50 was less than 10 nM. With `CCCCCC1CN(CC(=O)N2CCCC2CCCC)C(=O)c2cc(-c3ccc(Cl)cc3)nn21` (centres unmarked) [Compound I-0079] the figure was 100 to 1000 nM; with `C[C@H]1CN(CC(=O)N2CCOCC2)C(=O)c2cc(-c3ccc(Cl)cc3)nn21` [Compound I-0152], not below 1000 nM; with `C[C@H]1CN(Cc2cccc(CC(=O)O)c2)C(=O)c2cc(-c3ccc(Cl)cc3)nn21` [Compound I-0163], 100 to 1000 nM.

With `CC(=O)NC[C@@H](O)CN1C[C@H](C)n2nc(-c3ccc(OC(F)(F)F)cc3NC(C)=O)cc2C1=O` [Compound I-0340], the IC50 was in the range of 10 to 100 nM.

With `CCCCCC1CN(CC(=O)N2CCC(C)C2)C(=O)c2cc(-c3ccc(Cl)cc3)nn21` (centres unmarked) [Compound I-0074], the 50% inhibitory concentration (IC50) lay within 100 to 1000 nM.

With `CCCCCC1CN(CC(=O)N2CCC(CC(=O)O)CC2)C(=O)c2cc(-c3ccc(Cl)cc3)nn21` (centres unmarked) [Compound I-0048], the IC50 lay in the range of 10 to 100 nM. With `CCCCCC1CN(CC(=O)NCCN(C)C)C(=O)c2cc(-c3ccc(Cl)cc3)nn21` (centres unmarked) [Compound I-0103] the figure was not below 1000 nM; with `CCOC(=O)CN1CC(C(C)C)n2nc(-c3ccc(Cl)cc3)cc2C1=O` (centres unmarked) [Compound I-0022], not below 1000 nM. Consider `CCCCCC1CN(CC(=O)N2CCC[C@@H](C)C2)C(=O)c2cc(-c3ccc(Cl)cc3)nn21` (some centres unmarked) [Compound I-0071], for which the half-inhibitory concentration (IC50) lay within 100 to 1000 nM. Consider `CC(=O)Nc1cc(C#N)ccc1-c1cc2n(n1)[C@@H](C)CN(C[C@H]1CNC(=O)O1)C2=O` [Compound I-0338], for which the concentration for half-maximal inhibition (IC50) lay in the range of 10 to 100 nM. Consider `CCCCCCC1CCCN1C(=O)CN1CC(CCCCC)n2nc(-c3ccc(Cl)cc3)cc2C1=O` (centres unmarked) [Compound I-0031], for which the IC50 was not below 1000 nM. For the molecule `CCCCCC1CN(Cc2ccc(OC(C)=O)cc2)C(=O)c2cc(-c3ccc(Cl)cc3)nn21` (centres unmarked) [Compound I-0140], the half-inhibitory concentration (IC50) was not below 1000 nM. With `CCCCC1CN(Cc2ccc(C#N)cc2)C(=O)c2cc(-c3ccc(Cl)cc3COC)nn21` (centres unmarked) [Compound I-0284] the figure was not below 1000 nM. As for `CCCCC1CN(CC(=O)NCC(N)=O)C(=O)c2cc(-c3ccc(Cl)cc3)nn21` (centres unmarked) [Compound I-0215], the concentration for half-maximal inhibition (IC50) was 100 to 1000 nM. With `CC(=O)Nc1cc(C(F)(F)F)ccc1-c1cc2n(n1)[C@@H](C)CN(Cc1ccc(C#N)cc1)C2=O` [Compound I-0333] the figure was 10 to 100 nM; with `C[C@H]1CN(Cc2ccc(C#N)cc2)C(=O)c2cc(-c3ccc(Cl)cc3NC(=O)C3CC3)nn21` [Compound I-0322], 10 to 100 nM; with `CCCCC1CN(Cc2ccc(C#N)cc2)C(=O)c2cc(-c3ccc(Cl)cc3CNC)nn21` (centres unmarked) [Compound I-0278], not below 1000 nM.

Take `CCCCCC1CN(CC(=O)N2CCC(O)C2)C(=O)c2cc(-c3ccc(Cl)cc3)nn21` (centres unmarked) [Compound I-0035]: the IC50 was in the range of 100 to 1000 nM. With `CCCCC1CN(CC(=O)NCCC(=O)N(C)C)C(=O)c2cc(-c3ccc(Cl)cc3)nn21` (centres unmarked) [Compound I-0225] the figure was 100 to 1000 nM; with `CCCCC1CN(CC(=O)NCC#N)C(=O)c2cc(-c3ccc(Cl)cc3)nn21` (centres unmarked) [Compound I-0213], 10 to 100 nM.

As for `CCCCC1CN(CC(=O)NCCC(N)=O)C(=O)c2cc(-c3ccc(Cl)cc3)nn21` (centres unmarked) [Compound I-0222], the IC50 lay in the range of 100 to 1000 nM. As to `CCCCC1CN(CC(=O)NCc2cc(=O)[nH]o2)C(=O)c2cc(-c3ccc(Cl)cc3)nn21` (centres unmarked) [Compound I-0233], the concentration for half-maximal inhibition (IC50) lay within 10 to 100 nM. Then `CCCCCC1CN(CC(=O)N2CCCCC2CO)C(=O)c2cc(-c3ccc(Cl)cc3)nn21` (centres unmarked) [Compound I-0090], with 10 to 100 nM; and `CCCCCC1CN(CC(=O)NCCCC(=O)O)C(=O)c2cc(-c3ccc(Cl)cc3)nn21` (centres unmarked) [Compound I-0047], with 10 to 100 nM.

As for `N#Cc1ccc(CN2CC(COC(F)(F)C(F)F)n3nc(-c4ccc(Cl)cc4)cc3C2=O)cc1` (centres unmarked) [Compound I-0195], the 50% inhibitory concentration (IC50) fell in the range of 100 to 1000 nM. For `N#Cc1ccc(CN2CC(COCc3ccccc3)n3nc(-c4ccc(Cl)cc4)cc3C2=O)cc1` (centres unmarked) [Compound I-0177], the IC50 was not below 1000 nM. On to `CCCCC1CN(Cc2ccc(C#N)cc2)C(=O)c2cc(N3Cc4ccccc4C3)nn21` (centres unmarked) [Compound I-0306], for which the IC50 is not below 1000 nM. In the case of `C[C@H]1CN(CC(=O)C2CCCCN2C(=O)O)C(=O)c2cc(-c3ccc(Cl)cc3)nn21` (some centres unmarked) [Compound I-0158], the IC50 was 100 to 1000 nM. Turning to `CCCCC1CN(CCNC(=O)OC(C)(C)C)C(=O)c2cc(-c3ccc(Cl)cc3)nn21` (centres unmarked) [Compound I-0265], the IC50 lay within 10 to 100 nM.

Turning to `CCCCCC1CN(Cc2ccc(OCCCN(C)C)cc2)C(=O)c2cc(-c3ccc(Cl)cc3)nn21` (centres unmarked) [Compound I-0134], the IC50 was not below 1000 nM.

Consider `CCCCC1CN(CN)C(=O)c2cc(-c3ccc(Cl)cc3)nn21` (centres unmarked) [Compound I-0288], for which the IC50 is not below 1000 nM. With `COCc1cc(Cl)ccc1-c1cc2n(n1)[C@@H](C)CN(Cc1ccc(C#N)cc1)C2=O` [Compound I-0329] the figure was not below 1000 nM.

For `CCCCCC1CN(Cc2cccc(NC(C)=O)c2)C(=O)c2cc(-c3ccc(Cl)cc3)nn21` (centres unmarked) [Compound I-0142], the IC50 is 100 to 1000 nM.

On to `CCCC1CN(Cc2ccc(C#N)cc2)C(=O)c2cc(-c3ccc(C(F)(F)F)cc3)nn21` (centres unmarked) [Compound I-0182], for which the concentration for half-maximal inhibition (IC50) was not below 1000 nM. Regarding `CCCCCC1CN(Cc2ccccc2C)C(=O)c2cc(-c3ccc(Cl)cc3)nn21` (centres unmarked) [Compound I-0127], the half-inhibitory concentration (IC50) was not below 1000 nM. `CCOC(=O)CN1CC(Cc2ccccc2)n2nc(-c3ccc(Cl)cc3)cc2C1=O` (centres unmarked) [Compound I-0025]: the half-maximal inhibitory concentration (IC50) is 100 to 1000 nM. `CCCCC1CN(CC(=O)N2CCC(C#N)CC2)C(=O)c2cc(-c3ccc(Cl)cc3)nn21` (centres unmarked) [Compound I-0220]: the IC50 is 100 to 1000 nM. Turning to `C[C@H]1CN(Cc2ccccc2)C(=O)c2cc(-c3ccc(Cl)cc3)nn21` [Compound I-0172], the IC50 was not below 1000 nM. Then `C[C@H]1CN(Cc2ccc(O)cc2)C(=O)c2cc(-c3ccc(Cl)cc3)nn21` [Compound I-0171], with not below 1000 nM; and `CCCCCC1CN(Cc2ccc(O)cc2)C(=O)c2cc(-c3ccc(Cl)cc3)nn21` (centres unmarked) [Compound I-0123], with not below 1000 nM. With `CCCCC1CN(CC(=O)NCC(O)CO)C(=O)c2cc(-c3ccc(Cl)cc3)nn21` (centres unmarked) [Compound I-0219], the IC50 lay in the range of 100 to 1000 nM. In the case of `O=C1NCC(COCC(F)(F)C(F)F)n2nc(-c3ccc(Cl)cc3)cc21` (centres unmarked) [Compound I-0196], the IC50 lay within 100 to 1000 nM. For `CCCCC1CN(CC(=O)N[C@@H]2CCC[C@H]2O)C(=O)c2cc(-c3ccc(Cl)cc3)nn21` (some centres unmarked) [Compound I-0221], the IC50 was 100 to 1000 nM. Consider `CCCCCC1CN(CC(=O)N[C@@H](C(=O)O)c2ccccc2)C(=O)c2cc(-c3ccc(Cl)cc3)nn21` (some centres unmarked) [Compound I-0064], for which the half-maximal inhibitory concentration (IC50) is less than 10 nM. Then `CCCCC1CN(CC(=O)N2CCO[C@H](C)C2)C(=O)c2cc(-c3ccc(Cl)cc3)nn21` (some centres unmarked) [Compound I-0240], with 100 to 1000 nM. In the case of `CCCCC1CN(CC(=O)N2CCC(OCCO)CC2)C(=O)c2cc(-c3ccc(Cl)cc3)nn21` (centres unmarked) [Compound I-0243], the IC50 was 100 to 1000 nM. With `CCCCC1CN(CC(=O)NCCO)C(=O)c2cc(-c3ccc(Cl)cc3)nn21` (centres unmarked) [Compound I-0218] the figure was 100 to 1000 nM. As for `C[C@H]1CN(CC(=O)N(C)CCC#N)C(=O)c2cc(-c3ccc(C#N)cc3NC(=O)CC(F)(F)F)nn21` [Compound I-0352], the half-inhibitory concentration (IC50) is 10 to 100 nM.

With `CCCCC1CN(CC(=O)NCCOCCO)C(=O)c2cc(-c3ccc(Cl)cc3)nn21` (centres unmarked) [Compound I-0212], the IC50 was in the range of 100 to 1000 nM. With `CCCCCC1CN(CC(=O)N2CCC[C@@H]2C)C(=O)c2cc(-c3ccc(Cl)cc3)nn21` (some centres unmarked) [Compound I-0075] the figure was 10 to 100 nM; with `CCCCCC1CN(CC(=O)N2CCC(N(C)C)C2)C(=O)c2cc(-c3ccc(Cl)cc3)nn21` (centres unmarked) [Compound I-0034], not below 1000 nM; with `CC(C#N)Nc1cc(Cl)ccc1-c1cc2n(n1)[C@@H](C)CN(Cc1ccc(C#N)cc1)C2=O` (some centres unmarked) [Compound I-0325], not below 1000 nM. With `CCCCCC1CN(Cc2cc(C(C)=O)ccc2OC)C(=O)c2cc(-c3ccc(Cl)cc3)nn21` (centres unmarked) [Compound I-0136], the IC50 is not below 1000 nM. Turning to `CCCCCC1CN(CC(=O)NCc2ccccc2C(=O)O)C(=O)c2cc(-c3ccc(Cl)cc3)nn21` (centres unmarked) [Compound I-0119], the IC50 was in the range of 10 to 100 nM.
